Data as given in ChEMBL document CHEMBL1800001, “Biophysical mapping of the adenosine A2A receptor” (J Med Chem, 2011).

How the values were obtained:
Adenosine receptor A2a [1] = molecular target: T1, Adenosine receptor A2a (Homo sapiens, UniProt P29274); assay: Displacement of [3H]ZM241385 from stabilized human adenosine receptor A2a expressed in HEK293 cells followed by receptor capturing on Biocore chips by SPR method
Adenosine receptor A2a [2] = molecular target: T1, Adenosine receptor A2a; assay: Displacement of [3H]ZM241385 from wild type human adenosine receptor A2a expressed in HEK293 cells

T1 sequence (P29274 whole entry, looked up): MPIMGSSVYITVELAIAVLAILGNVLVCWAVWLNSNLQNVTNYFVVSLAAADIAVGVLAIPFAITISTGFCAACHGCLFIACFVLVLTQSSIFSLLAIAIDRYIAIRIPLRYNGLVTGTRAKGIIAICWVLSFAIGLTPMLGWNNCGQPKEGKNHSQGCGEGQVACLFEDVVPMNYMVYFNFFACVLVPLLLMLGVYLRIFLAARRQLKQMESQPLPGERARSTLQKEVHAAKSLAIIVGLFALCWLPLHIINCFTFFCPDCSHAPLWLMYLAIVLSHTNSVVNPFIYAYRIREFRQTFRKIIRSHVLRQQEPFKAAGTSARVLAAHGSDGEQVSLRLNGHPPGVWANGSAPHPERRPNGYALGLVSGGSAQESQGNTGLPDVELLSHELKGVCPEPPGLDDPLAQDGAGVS

pKd (Adenosine receptor A2a [1]) | pKi (Adenosine receptor A2a [2]) | SMILES
6 | 7.9 | Nc1nc(-c2ccccc2O)nc(N2Cc3ccc(F)cc3C2)n1
9.5 | 8.8 | COCCOc1ccc(N2CCN(CCn3ncc4c3nc(N)n3nc(-c5ccco5)nc43)CC2)cc1 [PRELADENANT]
7.9 | 9 | CN1CCN(C(=O)c2cccc(-c3nc(N)nc(-c4ccccc4O)n3)c2)CC1
